Data on two molecules can be found in PMC3949521 (Acta Crystallographica Section D: Biological Crystallography, 2014).

The target in the test is T1, B. megaterium PBGD (Priestia megaterium, UniProt Q8GCA8).
T1 construct: gene hemC; His tag removed for crystals; gene encodes 310 residues; about 35 kDa; monomer; cofactor on Cys241; residues 42-62 disordered
In words: X-ray crystal structure, […] and […] Å. The test is classed as binding. The settings on record: covalent (thioether to Cys241), pH 6.5-6.8, partial occupancy.

T1 sequence (Q8GCA8 entry or part of it): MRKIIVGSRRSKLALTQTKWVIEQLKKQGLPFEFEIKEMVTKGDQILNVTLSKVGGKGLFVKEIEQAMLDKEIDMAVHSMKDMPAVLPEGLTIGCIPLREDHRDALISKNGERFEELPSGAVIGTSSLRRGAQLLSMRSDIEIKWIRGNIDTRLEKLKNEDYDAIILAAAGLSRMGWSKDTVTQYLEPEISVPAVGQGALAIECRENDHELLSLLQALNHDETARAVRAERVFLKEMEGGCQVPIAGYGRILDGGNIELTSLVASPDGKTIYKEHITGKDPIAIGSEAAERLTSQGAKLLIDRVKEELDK

On to `N[C@@H](CSCc1[nH]c(Cc2[nH]cc(CCC(=O)O)c2CC(=O)O)c(CCC(=O)O)c1CC(=O)O)C(=O)O` [dipyrromethane cofactor], for which the “X-ray crystal structure, 1.46 and 1.60 Å” value (X-ray cannot tell dipyrromethane from dipyrromethene, PDB also 4mlq) was “one of which corresponds to the fully reduced dipyrromethane”. As to `N[C@@H](CSCc1[nH]c(CC2NC(=O)C(CCC(=O)O)=C2CC(=O)O)c(CCC(=O)O)c1CC(=O)O)C(=O)O` (some centres unmarked) [dipyrromethanone], under “shared with reduced conformer, inactive oxidized form, PDB also 4mlv”, the “X-ray crystal structure, 1.46 and 1.60 Å” value is given as “the 'oxidized' conformation of the cofactor is actually the partly reduced dipyrromethanone form”.
